Measured values as given in patent publication US20220089575A1, “FARNESOID X RECEPTOR AGONISTS AND USES THEREOF” (Metacrine, Inc., priority 2017, published 2022).

Molecular target: T1, hFXR (Homo sapiens, UniProt Q96RI1)
T1 construct: expressed in transfected cells; host or cells: CV-1 cells
T1 sequence (Q96RI1 1-486): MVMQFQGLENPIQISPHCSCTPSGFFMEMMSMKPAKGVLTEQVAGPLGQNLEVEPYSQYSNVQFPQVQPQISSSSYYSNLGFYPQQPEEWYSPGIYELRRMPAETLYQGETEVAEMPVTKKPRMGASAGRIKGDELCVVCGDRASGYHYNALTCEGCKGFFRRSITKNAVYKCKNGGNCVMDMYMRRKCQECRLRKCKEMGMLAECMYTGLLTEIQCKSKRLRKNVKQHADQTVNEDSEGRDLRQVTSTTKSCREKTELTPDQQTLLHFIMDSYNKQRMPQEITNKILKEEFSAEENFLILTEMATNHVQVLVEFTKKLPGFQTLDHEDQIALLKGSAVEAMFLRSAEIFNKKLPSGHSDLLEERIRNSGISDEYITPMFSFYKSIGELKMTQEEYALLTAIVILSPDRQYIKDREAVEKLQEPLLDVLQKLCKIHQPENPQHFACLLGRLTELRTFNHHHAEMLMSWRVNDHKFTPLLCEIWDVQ
T1 sequence (P19793 1-462 partner): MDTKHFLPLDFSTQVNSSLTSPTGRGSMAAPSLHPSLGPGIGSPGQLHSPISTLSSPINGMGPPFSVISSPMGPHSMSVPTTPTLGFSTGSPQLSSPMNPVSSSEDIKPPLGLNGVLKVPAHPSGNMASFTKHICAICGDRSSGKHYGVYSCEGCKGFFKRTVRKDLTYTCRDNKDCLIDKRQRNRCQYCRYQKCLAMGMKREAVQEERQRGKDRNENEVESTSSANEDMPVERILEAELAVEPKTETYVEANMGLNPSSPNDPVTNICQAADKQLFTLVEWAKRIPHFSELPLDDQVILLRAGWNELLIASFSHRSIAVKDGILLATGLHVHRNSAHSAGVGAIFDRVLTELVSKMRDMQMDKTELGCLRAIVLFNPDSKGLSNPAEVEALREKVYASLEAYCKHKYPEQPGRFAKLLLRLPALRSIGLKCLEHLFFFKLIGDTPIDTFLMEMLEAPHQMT
Assay: In Vitro FXR Assay (TK): TK-ECRE-luc reporter in transfected CV-1 cells
Format: cell-based
Settings: 18 hrs, luminescence, maximum efficacy of <25% of the Fexarmine control classified as '+'
Outline: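 Cells are seeded in charcoal double-stripped FBS medium, transfected overnight with FXR/RXR expression and ECRE-driven luciferase reporter plasmids, then treated with serially diluted compounds for 18 h. Lysates are measured for luciferase light output.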

| SMILES | EC50 |
| --- | --- |
| COc1ccc([C@H]2CC[C@H](CN(c3cccc(-c4cnn(C5CC5)c4)c3)C(=O)[C@H]3CC[C@H](OC(=O)N4CC(S(C)(=O)=O)C4)CC3)CC2)cc1C [Compound 6.29, trans-4-((3-(1-Cyclopropyl-1H-pyrazol-4-yl)phenyl)((trans-4-(4-methoxy-3-methylphenyl)cyclohexyl)methyl)carbamoyl)cyclohexyl 3-(methylsulfonyl)azetidine-1-carboxylate] | ≤ 250 nM |
| COc1ccc([C@H]2CC[C@H](CN(c3cccc(-c4cnn(C5CC5)c4)c3)C(=O)[C@H]3CC[C@H](OC(=O)N4CC(SC)C4)CC3)CC2)cc1C [Compound 6.30, trans-4-((3-(1-Cyclopropyl-1H-pyrazol-4-yl)phenyl)((trans-4-(4-methoxy-3-methylphenyl)cyclohexyl)methyl)carbamoyl)cyclohexyl 3-(methylthio) azetidine-1-carboxylate] | ≤ 250 nM |
| COc1ccc([C@H]2CC[C@H](CN(c3cc(-c4cnn(C(C)C)c4)ccn3)C(=O)[C@H]3CC[C@H](OC(=O)NC4CC4)CC3)CC2)nc1C [Compound 6.31, trans-4-((4-(1-Isopropyl-1H-pyrazol-4-yl)pyridin-2-yl)((trans-4-(5-methoxy-6-methylpyridin-2-yl)cyclohexyl)methyl)carbamoyl)cyclohexyl cyclopropylcarbamate] | ≤ 250 nM |
| COc1ccc([C@H]2CC[C@H](CN(c3cc(-c4cnn(C(C)C)c4)ccn3)C(=O)[C@H]3CC[C@H](OC(=O)NC(C)C)CC3)CC2)nc1C#N [Compound 6.32, trans-4-(((trans-4-(6-Cyano-5-methoxypyridin-2-yl)cyclohexyl)methyl) (4-(1-isopropyl-1H-pyrazol-4-yl)pyridin-2-yl)carbamoyl)cyclohexyl isopropylcarbamate] | ≤ 250 nM |
| COc1ccc([C@H]2CC[C@H](CN(c3cc(-c4cnn(C(C)C)c4)ccn3)C(=O)[C@H]3CC[C@H](OC(=O)NC4CC4)CC3)CC2)nc1C#N [Compound 6.33, trans-4-(((trans-4-(6-Cyano-5-methoxypyridin-2-yl)cyclohexyl)methyl) (4-(1-isopropyl-1H-pyrazol-4-yl)pyridin-2-yl)carbamoyl)cyclohexyl cyclopropylcarbamate] | ≤ 250 nM |
| COCCNC(=O)O[C@H]1CC[C@H](C(=O)N(C[C@H]2CC[C@H](c3ccc(OC)c(C#N)c3)CC2)c2cc(-c3cnn(C(C)C)c3)ccn2)CC1 [Compound 6.34, trans-4-(((trans-4-(3-Cyano-4-methoxyphenyl)cyclohexyl)methyl)(4-(1-isopropyl-1H-pyrazol-4-yl)pyridin-2-yl)carbamoyl)cyclohexyl (2-methoxyethyl)carbamate] | ≤ 250 nM |
| COc1ccc([C@H]2CC[C@H](CN(c3cc(-c4cnn(C(C)C)c4)ccn3)C(=O)[C@H]3CC[C@H](OC(=O)NC4CC4)CC3)CC2)cc1C#N [Compound 6.35, trans-4-(((trans-4-(3-Cyano-4-methoxyphenyl)cyclohexyl)methyl)(4-(1-isopropyl-1H-pyrazol-4-yl)pyridin-2-yl)carbamoyl)cyclohexyl cyclopropylcarbamate] | ≤ 250 nM |
| COc1ccc([C@H]2CC[C@H](CN(c3cc(-c4cnn(C(C)C)c4)ccn3)C(=O)[C@H]3CC[C@H](OC(=O)N4CC(S(C)(=O)=O)C4)CC3)CC2)cc1C#N [Compound 6.36, trans-4-(((trans-4-(3-Cyano-4-methoxyphenyl)cyclohexyl)methyl)(4-(1-isopropyl-1H-pyrazol-4-yl)pyridin-2-yl)carbamoyl)cyclohexyl 3-(methylsulfonyl)azetidine-1-carboxylate] | ≤ 250 nM |
| COc1ccc([C@H]2CC[C@H](CN(c3cc(-c4cnn(C(C)C)c4)ccn3)C(=O)[C@H]3CC[C@H](OC(=O)N4CCOCC4)CC3)CC2)cc1C#N [Compound 6.37, trans-4-(((trans-4-(3-Cyano-4-methoxyphenyl)cyclohexyl)methyl)(4-(1-isopropyl-1H-pyrazol-4-yl)pyridin-2-yl)carbamoyl)cyclohexyl morpholine-4-carboxylate] | ≤ 250 nM |
| COc1ccc([C@H]2CC[C@H](CN(c3cc(-c4cnn(C(C)C)c4)ccn3)C(=O)[C@H]3CC[C@H](OC(=O)N4CCN(C)CC4)CC3)CC2)cc1C#N [Compound 6.38, trans-4-(((trans-4-(3-Cyano-4-methoxyphenyl)cyclohexyl)methyl)(4-(1-isopropyl-1H-pyrazol-4-yl)pyridin-2-yl)carbamoyl)cyclohexyl 4-methylpiperazine-1-carboxylate] | ≤ 250 nM |
| COc1ccc([C@H]2CC[C@H](CN(c3cc(-c4cnn(C(C)C)c4)ccn3)C(=O)[C@H]3CC[C@H](OC(=O)N4CC(S(C)(=O)=O)C4)CC3)CC2)nc1C [Compound 6.39, trans-4-((4-(1-Isopropyl-1H-pyrazol-4-yl)pyridin-2-yl)((trans-4-(5-methoxy-6-methylpyridin-2-yl)cyclohexyl)methyl)carbamoyl)cyclohexyl 3-(methylsulfonyl)azetidine-1-carboxylate] | ≤ 250 nM |
| COc1ccc([C@H]2CC[C@H](CN(c3cc(-c4cnn(C(C)C)c4)ccn3)C(=O)[C@H]3CC[C@H](OC(=O)N4CCOCC4)CC3)CC2)nc1C [Compound 6.40, trans-4-((4-(1-Isopropyl-1H-pyrazol-4-yl)pyridin-2-yl)((trans-4-(5-methoxy-6-methylpyridin-2-yl)cyclohexyl)methyl)carbamoyl)cyclohexyl morpholine-4-carboxylate] | ≤ 250 nM |
| COc1ccc([C@H]2CC[C@H](CN(c3cc(-c4cnn(C(C)C)c4)ccn3)C(=O)[C@H]3CC[C@H](OC(=O)N4CCN(C)CC4)CC3)CC2)nc1C [Compound 6.41, trans-4-((4-(1-Isopropyl-1H-pyrazol-4-yl)pyridin-2-yl)((trans-4-(5-methoxy-6-methylpyridin-2-yl)cyclohexyl)methyl)carbamoyl)cyclohexyl 4-methylpiperazine-1-carboxylate] | ≤ 250 nM |
| COc1ccc([C@H]2CC[C@H](CN(c3cccc(-c4cnn(C(C)C)c4)c3)C(=O)[C@H]3CC[C@H](OC(=O)N4CC(S(C)(=O)=O)C4)CC3)CC2)nc1C [Compound 6.42, trans-4-((3-(1-Isopropyl-1H-pyrazol-4-yl)phenyl)((trans-4-(5-methoxy-6-methylpyridin-2-yl)cyclohexyl)methyl)carbamoyl)cyclohexyl 3-(methylsulfonyl)azetidine-1-carboxylate] | ≤ 250 nM |
| COc1ccc([C@H]2CC[C@H](CN(c3cccc(-c4cnn(C(C)C)c4)c3)C(=O)[C@H]3CC[C@H](OC(=O)N4CCOCC4)CC3)CC2)nc1C [Compound 6.43, trans-4-((3-(1-Isopropyl-1H-pyrazol-4-yl)phenyl)((trans-4-(5-methoxy-6-methylpyridin-2-yl)cyclohexyl)methyl)carbamoyl)cyclohexylmorpholine-4-carboxylate] | ≤ 250 nM |
| COc1ccc([C@H]2CC[C@H](CN(c3cccc(-c4cnn(C(C)C)c4)c3)C(=O)[C@H]3CC[C@H](OC(=O)N4CCN(C)CC4)CC3)CC2)nc1C [Compound 6.44, trans-4-((3-(1-Isopropyl-1H-pyrazol-4-yl)phenyl)((trans-4-(5-methoxy-6-methylpyridin-2-yl)cyclohexyl)methyl)carbamoyl)cyclohexyl 4-methylpiperazine-1-carboxylate] | ≤ 250 nM |
| COc1ccc(C23CCC(CN(c4cccc(-c5coc(C6CC6)n5)c4)C(=O)[C@H]4CC[C@H](OC(=O)NCCO)CC4)(CC2)CC3)cc1C [Compound 6.45, 4-((3-(2-Cyclopropyloxazol-4-yl)phenyl) ((4-(4-methoxy-3-methylphenyl)bicyclo [2.2.2]octan-1-yl)methyl)carbamoyl) cyclohexyl trans-(2-hydroxyethyl) carbamate] | ≤ 250 nM |
| COc1ccc([C@H]2CC[C@H](CN(c3cccc(-c4coc(C5CC5)n4)c3)C(=O)[C@H]3CC[C@H](OC(=O)NCCO)CC3)CC2)cc1C [Compound 6.46, trans-4-((3-(2-Cyclopropyloxazol-4-yl)phenyl)((trans-4-(4-methoxy-3-methylphenyl)cyclohexyl)methyl)carbamoyl)cyclohexyl (2-hydroxyethyl) carbamate] | ≤ 250 nM |
| COc1ccc([C@H]2CC[C@H](CN(c3cccc(-c4coc(C(C)C)n4)c3)C(=O)[C@H]3CC[C@H](OC(=O)NCCO)CC3)CC2)cc1C [Compound 6.47, trans-4-((3-(2-Isopropyloxazol-4-yl)phenyl)((trans-4-(4-methoxy-3-methylphenyl)cyclohexyl)methyl)carbamoyl)cyclohexyl (2-hydroxyethyl) carbamate] | ≤ 250 nM |
